Where a SMILES comes first, the peptide text is derived from it. Where no end group is shown, it is not given here.
Tested on: HL-60 cells differentiated into the neutrophil-like cells
Experiment: β-hexosaminidase-secreting activity of neutrophil-like differentiated HL-60 cells
Type: cell-based, human
Settings: neutrophil-like differentiated HL-60 cells; for Activity (β-hexosaminidase-secreting activity class): lowest concentration class at which secretion was confirmed; for EC50: Table 1, read-out: EC50 (μM), β-hexosaminidase-secreting activity
Source text: (1) Culture of Cell and Differentiation Into Neutrophil-like Cell
In this time, the cells were subcultured at a cell density of 1.0×10^5 cells/ml to 1.5×10^6 cells/ml, the number of cells was counted using a microscope, and the state of the cells was also confirmed.
The HL-60 cells were differentiated into neutrophil-like cells by setting the cell density in the flask to about 1.0×10^6 cells/ml, adding dibutylyl-cAMP (db-cAMP) as a differentiation-inducing agent so as to have a final concentration of 500 μM, and incubating the cells in the presence of CO2 at 37° C. for 3 days.
(2) Stimulation of Cell and Measurement of β-Hexosaminidase-secreting Activity
The cells were collected by centrifuging the suspension of the differentiated HL-60 cells (1,000 rpm, 5 minutes, 4° C.). After that, the following operation was repeated three times to wash the cells: Hepes buffered Hank's solution (HBHS) containing ice-cooled 0.1% BSA (1.2 mM CaCl2.2H2O, 5.4 mM KCl, 0.44 mM KH2PO4, 0.49 mM MgCl2.6H2O, 0.41 mM MgSO4.7H2O, 136.9 mM NaCl, 0.34 mM Na2HPO4, 10 mM Hepes, 4.2 mM NaHCO3, 5.5 mM D-glucose, pH 7.4) was added to the cells; the mixture was suspended by inversion; and the mixture was centrifuged again (1,000 rpm, 5 minutes, 4° C.). Subsequently, HBHS was added so that the mixture has a cell density of 5.6×10^6 cells/ml and suspended. Then, DNase I and cytochalasin B were each added so as to have a final concentration of 5 μg/ml, and the cell suspension was dispensed in an amount of 90 μl (5×10^5 cells) on ice. […] After the cell stimulation for 10 minutes, 100 μl of an ice-cooled stop solution (25 mM Tris, 123 mM NaCl, 2.7 mM KCl, pH 7.4) were added, and immediately, the mixture was centrifuged (5,000 rpm, 1 minute, 4° C.). 200 μl of the obtained supernatant were transferred to a new tube.
The amount of β-hexosaminidase released in the supernatant of the reaction solution was measured by an enzyme reaction using p-nitrophenyl-N-acetyl-μ-D-glucosaminide as a substrate (Non-patent Document 12). That is, the supernatant of the reaction solution was dispensed in an amount of 90 μl to a 96-well plate. 60 μl of a substrate solution (10 mM p-nitrophenyl-N-acetyl-μ-D-glucosaminide, 40 mM citrate, 70 mM Na2HPO4, pH 4.5) were added to each well, followed by incubation at 37° C. for 1 hour. After the reaction, 100 μl of a stop solution (0.4 M glycine, pH 10.7) were added to each well and a color of the released p-nitrophenol was developed. The color development was measured with a plate reader at adsorption at 405 nm (reference: 492 nm). The all amount of β-hexosaminidase contained in the cells was quantified by treating the cells with Triton X-100 having a final concentration of 0.05%. In addition, the amount of β-hexosaminidase secreted by stimulation of 10 μM fMLP was also measured, and the ratio of the secretion amount by stimulation with each peptide to the above sectretion amount by stimulation with fMLP.

| EC50 [µM] | Compound | Activity (β-hexosaminidase-secreting activity class) |
| --- | --- | --- |
| 0.23 | MLWNLLALHQIGQRTISTASHRH [compound 019] | ⊚ (a peptide in which the β-hexosaminidase-secreting activity was confirmed at a concentration of 300 nM or less) |
| 6 | MSVLTPLLLRGLTGSARRLPVPRAKIHSLPPEGK [compound 033] | ∘ (a peptide in which the β-hexosaminidase-secreting activity was confirmed at a concentration of 1 μM or less) |
| > 20 | 047 (MLSALARPVSAALRRSFSTSAQNN) [compound 047] | ● (a peptide in which the β-hexosaminidase-secreting activity was confirmed at a concentration of 10 μM or less) |
| 0.3 | CC[C@H](C)[C@H](NC(=O)[C@H](CS)NC(=O)[C@H](CC(C)C)NC(=O)[C@H](CCC(N)=O)NC(=O)[C@@H]1CCCN1C(=O)[C@H](CO)NC(=O)[C@H](Cc1ccccc1)NC(=O)[C@H](Cc1c[nH]cn1)NC(=O)[C@H](C)NC(=O)[C@H](CCCNC(=N)N)NC(=O)[C@H](CC(C)C)NC(=O)[C@H](CS)NC(=O)[C@H](Cc1c[nH]cn1)NC(=O)[C@H](CCCNC(=N)N)NC(=O)CNC(=O)[C@@H](NC(=O)[C@H](Cc1c[nH]cn1)NC(=O)[C@H](CCCNC(=N)N)NC(=O)[C@H](CC(C)C)NC(=O)[C@H](CC(C)C)NC(=O)[C@H](CC(C)C)NC(=O)[C@H](C)NC(=O)[C@H](C)NC(=O)[C@@H](N)CCSC)C(C)C)C(=O)N[C@@H](CCCNC(=N)N)C(=O)N[C@@H](CC(N)=O)C(=O)N[C@@H](C)C(=O)N[C@H](C(=O)N1CCC[C@H]1C(=O)N[C@@H](CC(C)C)C(=O)O)C(C)C [compound 023] (H-MAALLLRHVGRHCLRAHFSPQLCIRNAVPL-OH; N-terminus and C-terminus assumed) | ⊚ (a peptide in which the β-hexosaminidase-secreting activity was confirmed at a concentration of 300 nM or less) |
| 7 | MALLTAAARLLGTKNASCLVLAARHAS [compound 050] | ● (a peptide in which the β-hexosaminidase-secreting activity was confirmed at a concentration of 10 μM or less) |

More lines, now with the values behind:

| Compound | EC50 [µM] | Activity (β-hexosaminidase-secreting activity class) |
| --- | --- | --- |
| 021 (MAIQFRSLFPLALPGMLALLGWWWFFSRK) [compound 021] |  | ● (a peptide in which the β-hexosaminidase-secreting activity was confirmed at a concentration of 10 μM or less) |
| 003 (MASRLLRGAGTLAAQALRAR) [compound 003] |  | ▴ (a peptide in which the β-hexosaminidase-secreting activity was confirmed at a concentration of 100 μM or less) |
| 005 (MASRLLRGAGTLAAQALR) [compound 005] |  | ▴ (a peptide in which the β-hexosaminidase-secreting activity was confirmed at a concentration of 100 μM or less) |
| 013 (MALPLRPLTRGL) [compound 013] | > 30 | ● (a peptide in which the β-hexosaminidase-secreting activity was confirmed at a concentration of 10 μM or less) |

From US7893199B2, “Peptides having neutrophil-stimulating activity” (National University Corporation Gunma University, priority 2006, dated 2011)
